In patent US10071983B2, “Activatable fluorogenic compounds and uses thereof as near infrared probes” (Ramot at Tel-Aviv University Ltd., priority 2011, dated 2018):
Where “and” joins values, the source holds several entries; their conditions need not be identical. Equal entries are not always repeated.

Tests used:
[1] = NIR fluorescence emission spectrum of dye compounds; assay type: physicochemical; conditions: for fluorescence emission peak in the NIR region: PBS 7.4; for λmax: Table 1, λmax (fluorescence emission)
From the text: (§1) Compound 1 (which generates the dye compound QCy7 deprotonation) was obtained as an orange crystalline powder. FIGS. 4A and 4B present the UV-Vis spectrum of Compound 1 (FIG. 4A), compared to that of the acetate Compound 3 (FIG. 4B). […] The obtained large stokes shift between the excitation and the emission wavelengths of about 150 nm is a desirable feature for fluorescence probes, which assists in increasing the signal-to-noise ratio.
(§2) FIG. 5 presents the data obtained for fluorescence intensity vs. wavelength of standard sample (Cresyl violet; FIG. 5A), and test sample (QCy7; FIG. 5B), at the indicated concentrations. The measurements were performed in a 1 cm cuvette using Fluoromax-3 fluorometer; at an excitation wavelength of 560 nm. Cresyl violet was dissolved in methanol and Compound 1 in PBS 7.4 (just generating QCy7).
(§3) FIG. 8 presents the data obtained for fluorescence intensity vs. wavelength of standard sample (QCy7; FIG. 8A), and test sample (Sulfo-QCy7, generated from Compound 9; FIG. 8B), at the indicated concentrations. The measurements were performed at a 96-wells plate reader using Fluoromax-3 fluorometer; at an excitation wavelength of 560 nm. Both samples were dissolved in PBS 7.4.

[2] = Fluorescence quantum yield calculation against a reference dye; assay type: physicochemical; conditions: PBS 7.4
Procedure: Cresyl-violet-perchlorate (as presented hereinbelow) was chosen as a reference compound for the determination of QCy7 quantum yield.
as §2
Conversion to the absolute quantum yield is achieved through the following equation: ΦX=ΦST(GradX/GradST)(η^2X/η^2ST) where the subscripts ST and X denote standard and test respectively, Φ is the fluorescence quantum yield, Grad the gradient from the plot of integrated fluorescence intensity vs. absorbance (see, FIG. 6), and η the refractive index of the solvents. ΦCresyl-violet=0.55 [Stefan et al. ([…]) J. Phys. Chem. 86, 1738-1742].
QCy7 was chosen as a reference compound for the determination of Sulfo-QCy7 quantum yield.
as §3
The absolute quantum yield was calculated as described hereinabove and found to be: […]

[3] = Extinction coefficient calculation (absorbance vs concentration); assay type: physicochemical
From the text: FIG. 7 presents linear plots of QCy7 as measured at 1 cm cuvette, at the indicated concentrations in PBS 7.4, at the maximum wavelength of QCy7 (560 nm). εQCy7=26848[M^−1cm^−1]
FIG. 10 presents linear plots of Sulfo-QCy7 as measured at 1 cm cuvette, at the indicated concentrations in PBS 7.4, at the maximum wavelength of Sulfo-QCy7 (590 nm). εSulfo-QCy7=52235[M^−1cm^−1]

HeLa cells [4] = assay: Cell permeability, confocal imaging of HeLa cells; assay type: cell-based
Procedure: HeLa cells were incubated overnight with Compound 9 in PBS 7.4, and the cells was thereafter imaged by confocal microscope.
A colocalization assay of Compound 25 was conducted with the lysosome marker lysosensor. Sample was excited with a 561 nm laser line and fluorescence acquired from 570 nm to 800 nm.

[5] = NIR fluorescence emission spectrum of dye compounds; assay type: physicochemical; conditions: PBS 7.4 [50 μM], excitation 570 nm, cutting filter >690 nm
[6] = UV-Vis absorption spectrum of dye compounds; assay type: physicochemical
From the text: as §1
Compound 14 is composed from a phenol latent donor and two different acceptors; a picolinium moiety and an indolium moiety (see, Scheme 3). Deprotonation of the phenolic dye leads to formation of new donor-acceptor pair fluorochrome.
Compound 18 is composed of a phenol latent donor and two identical acceptors based on a picolinium moiety (see, Scheme 4). Deprotonation of the phenolic form leads to formation of new donor-acceptor pair fluorochrome.
Compound 25 is composed of a phenol latent donor and three acceptors; two picolinium moieties and one indolium moiety (see, Scheme 5). Deprotonation of the phenolic compound leads to formation of three resonance donor-two-acceptor structures of new fluorochrome.
The chemical 2D structures and spectroscopic data obtained for exemplary dye molecules according to embodiments of the present invention are presented in Table 1.

[7] = Aqueous stability in PBS 7.4 at 37° C., NIR emission over 72 hours; assay type: physicochemical; conditions: PBS 7.4 [25 μM]
Procedure: The aqueous stability of the cyanine-like dye compound presented herein was tested and compared to that of the cyanine molecule Cy7.
All tested compounds were incubated in PBS 7.4 [25 μM], at 37° C., and their NIR fluorescent emission was monitored over 72 hours. FIG. 15 presents the normalized intensity of NIR fluorescent emission of dyes generated from Compound 9 (green circles; Sulfo-QCy7), Compound 14 (blue diamonds), Compound 18 (red squares), Compound 25 (orange triangles) and Compound 1 (blank navy squares; QCy7) as a function of incubation time.

[8] = pKa measurement by UV-Vis absorbance as a function of pH; assay type: physicochemical; conditions: buffers at the indicated pH; 50 μM in buffers, phenol form
Procedure: The pKa values of exemplary compounds according to some embodiments of the present invention, Compounds 14, 18 and 25, was measured by monitoring their UV-Vis absorbance as a function of the environment pH. The tested compounds, at a concentration of 50 μM were dissolved in the respective buffers at the indicated pH and their absorbance was measured.

HeLa cells [9] = assay: Two-photon excitation with NIR laser in HeLa cells; assay type: cell-based; conditions: incubated with HeLa cells and PBS 7.4
Procedure: Fluorescent dyes, which absorb at wavelengths of 350-550 nm, can be excited in NIR region with a two-photon laser.
Compound 25 was incubated with HeLa cells and PBS 7.4.

[10] = in methanol; Stefan et al. 1992; cited from earlier work

fluorescence emission peak in the NIR region [1] | λmax [1] | quantum yield [2] | extinction coefficient ε ([3]; PBS 7.4, 1 cm cuvette, at maximum wavelength (QCy7 560 nm, Sulfo-QCy7 590 nm)) | extinction coefficient ([3]; rounded value) | appearance under NIR imaging camera [5] | UV-Vis absorption peak maximum ([6]; PBS 7.4) | λmax ([6]; Table 1, first λmax column (absorption peaks)) | pKa [8] | two-photon excitation spectrum wavelengths (HeLa cells [9]) | Structure (SMILES) | fluorescence inside vs outside the cells (HeLa cells [4]; HeLa cells incubated overnight, PBS 7.4) | aqueous stability compared with Cy7 [7] | cellular localization (colocalization with lysosensor) (HeLa cells [4]; HeLa cells, excitation 561 nm, 570-800 nm) | chemical stability in cell-medium (HeLa cells [4]; overnight incubation with cells) | NIR fluorescence under acidic condition of the lysosome (HeLa cells [4]; pH of about 5) | fluorescence quantum yield of reference [10]
720 nm | 710 nm | 16% | 52235 M⁻¹ cm⁻¹ | 52,000 mol^−1 cm^−1 | exhibits well-observed NIR fluorescence |  |  |  |  | CC1(C)C(/C=C/c2ccc(O)c(/C=C/C3=[N+](CCCS(=O)(=O)[O-])c4ccccc4C3(C)C)c2)=[N+](CCCS(=O)(=O)[O-])c2ccccc21 [Compound 9] | higher fluorescence inside the cells |  |  |  |  | 
680 nm | 650 nm | 16% |  |  |  | 330 nm and 550 nm | 550 nm | 5.4 | 800-1000 nm | C[n+]1ccc(/C=C/c2cc(/C=C/C3=[N+](CCCS(=O)(=O)O)c4ccccc4C3(C)C)cc(/C=C/c3cc[n+](C)cc3)c2O)cc1 [Compound 25] |  | increase aqueous stability than that of Cy7 | accumulation of the dye in the lisosomal vesicles indicates cell-penetration through endocytosis mechanism | chemical stability after overnight in cell-medium | emitted NIR fluorescence even under the acidic condition of the lysosome | 
 |  |  |  |  |  |  |  |  |  | N=c1cc2oc3cc(N)ccc3nc-2c2ccccc12.[O-][Cl+3]([O-])([O-])O [Cresyl-violet, Cresyl-violet-perchlorate] |  |  |  |  |  | 0.55
